Measured values reported in patent publication US9150566B2, “2-(1,2,3-triazol-2-yl)benzamide and 3-(1,2,3-triazol-2-YL)picolinamide derivatives as orexin receptor antagonists” (ACTELION PHARMACEUTICALS LTD., priority 2011, dated 2015).
Read-outs that look alike come from different tables or passages of the source.

Legend:
CYP3A4 = CYP3A4 (Homo sapiens (Human), UniProt P08684); assay: CYP3A4 inhibition assay (human liver microsomes, testosterone 6β-hydroxylation); conditions: read-out: CYP3A4 IC50, 40 μM testosterone
human orexin-2 receptor = human orexin-2 receptor (Homo sapiens (Human), UniProt O43614); assay: In vitro intracellular calcium measurements (FLIPR), antagonistic activity on orexin-2 receptor; format: cell-based; conditions: read-out: IC50 OX2
Procedure: (§1) In Vitro Assay: Intracellular Calcium Measurements:
(§2) Chinese hamster ovary (CHO) cells expressing the human orexin-1 receptor and the human orexin-2 receptor, respectively, are grown in culture medium (Ham F-12 with L-Glutamine) containing 300 μg/mL G418, 100 U/mL penicillin, 100 μg/mL streptomycin and 10% heat inactivated fetal calf serum (FCS). The cells are seeded at 20′000 cells/well into 384-well black clear bottom sterile plates (Greiner). The seeded plates are incubated overnight at 37° C. in 5% CO2.
(§3) Within the Fluorescent Imaging Plate Reader (FLIPR Tetra, Molecular Devices), antagonists are added to the plate in a volume of 10 μL/well, incubated for 120 min and finally 10 μL/well of agonist is added. Fluorescence is measured for each well at 1 second intervals, and the height of each fluorescence peak is compared to the height of the fluorescence peak induced by 3 nM orexin-A with vehicle in place of antagonist. […] Optimized conditions were achieved by adjustment of pipetting speed and cell splitting regime. The calculated IC50 values may fluctuate depending on the daily cellular assay performance. Fluctuations of this kind are known to those skilled in the art.

human orexin-1 receptor = human orexin-1 receptor (Homo sapiens (Human), UniProt O43613); assay: In vitro intracellular calcium measurements (FLIPR), antagonistic activity on orexin-1 receptor; format: cell-based; conditions: read-out: IC50 OX1
Procedure: as §1, §2, §3

[1] = CHO cells expressing human orexin-2 receptor, FLIPR, 3 nM orexin-A agonist, 120 min antagonist incubation, geometric mean if determined several times
[2] = CHO cells expressing human orexin-1 receptor, FLIPR, 3 nM orexin-A agonist, 120 min antagonist incubation, geometric mean if determined several times

Chain of CYP3A4 (P08684 whole entry): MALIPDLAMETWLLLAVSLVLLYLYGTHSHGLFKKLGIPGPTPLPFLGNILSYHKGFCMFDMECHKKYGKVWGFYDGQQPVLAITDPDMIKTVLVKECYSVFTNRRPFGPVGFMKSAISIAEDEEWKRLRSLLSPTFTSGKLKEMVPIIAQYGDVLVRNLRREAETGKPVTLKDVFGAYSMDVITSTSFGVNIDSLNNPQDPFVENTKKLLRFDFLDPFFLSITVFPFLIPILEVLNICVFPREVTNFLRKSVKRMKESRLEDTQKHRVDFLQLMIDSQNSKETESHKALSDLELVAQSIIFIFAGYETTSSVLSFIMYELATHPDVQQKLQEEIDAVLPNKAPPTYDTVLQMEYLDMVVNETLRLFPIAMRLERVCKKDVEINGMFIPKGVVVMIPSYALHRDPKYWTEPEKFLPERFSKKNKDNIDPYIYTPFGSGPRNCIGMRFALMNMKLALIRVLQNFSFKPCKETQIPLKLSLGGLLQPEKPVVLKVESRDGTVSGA
Chain of human orexin-2 receptor (O43614 whole entry): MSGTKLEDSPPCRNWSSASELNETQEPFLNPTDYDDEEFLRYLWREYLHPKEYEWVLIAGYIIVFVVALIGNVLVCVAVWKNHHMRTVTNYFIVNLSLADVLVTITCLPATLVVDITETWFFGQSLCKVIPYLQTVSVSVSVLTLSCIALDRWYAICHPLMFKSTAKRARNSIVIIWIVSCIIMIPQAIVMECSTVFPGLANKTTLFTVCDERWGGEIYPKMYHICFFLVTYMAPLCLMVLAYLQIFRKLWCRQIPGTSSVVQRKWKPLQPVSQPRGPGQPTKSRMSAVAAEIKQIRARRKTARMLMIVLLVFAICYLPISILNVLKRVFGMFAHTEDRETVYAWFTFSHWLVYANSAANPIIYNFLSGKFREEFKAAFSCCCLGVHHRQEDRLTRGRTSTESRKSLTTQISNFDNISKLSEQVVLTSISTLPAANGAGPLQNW
Chain of human orexin-1 receptor (O43613 whole entry): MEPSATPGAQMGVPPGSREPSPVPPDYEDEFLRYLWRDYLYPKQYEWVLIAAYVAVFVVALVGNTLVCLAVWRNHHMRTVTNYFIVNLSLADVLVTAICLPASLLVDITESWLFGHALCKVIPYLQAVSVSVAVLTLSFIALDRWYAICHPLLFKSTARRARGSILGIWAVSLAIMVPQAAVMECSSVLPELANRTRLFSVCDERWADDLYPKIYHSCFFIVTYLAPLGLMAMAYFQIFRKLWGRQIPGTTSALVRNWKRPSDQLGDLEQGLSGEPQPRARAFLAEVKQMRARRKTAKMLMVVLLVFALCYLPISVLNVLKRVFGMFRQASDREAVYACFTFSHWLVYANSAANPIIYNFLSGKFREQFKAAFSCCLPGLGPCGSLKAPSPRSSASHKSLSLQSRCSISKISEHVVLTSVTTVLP

SMILES | IC50 (CYP3A4) [nM] | IC50 (human orexin-2 receptor; [1]) [nM] | IC50 (human orexin-1 receptor; [2]) [nM] | IC50 (human orexin-1 receptor) [nM] | IC50 (human orexin-2 receptor) [nM]
Cc1ccc(C(=O)N2CCO[C@@H](C)[C@H]2Cc2cccc(-n3nccn3)c2)c(-n2nccn2)c1 (single isomer, unassigned) [Example 163, [(2S,3R)-2-Methyl-3-(3-[1,2,3]triazol-2-yl-benzyl)-morpholin-4-yl]-(4-methyl-2-[1,2,3]triazol-2-yl-phenyl)-methanone or [(2R,3R)-2-Methyl-3-(3-[1,2,3]triazol-2-yl-benzyl)-morpholin-4-yl]-(4-methyl-2-[1,2,3]triazol-2-yl-phenyl)-methanone] | 14000 |  |  |  | 
Cc1ccc(C(=O)N2CCO[C@H](C)[C@H]2Cc2cccc(-n3nccn3)c2)c(-n2nccn2)c1 (single isomer, unassigned) [Example 168, [(2R,3R)-2-Methyl-3-(3-[1,2,3]triazol-2-yl-benzyl)-morpholin-4-yl]-(4-methyl-2-[1,2,3]triazol-2-yl-phenyl)-methanone or [(2S,3R)-2-Methyl-3-(3-[1,2,3]triazol-2-yl-benzyl)-morpholin-4-yl]-(4-methyl-2-[1,2,3]triazol-2-yl-phenyl)-methanone] | 8500 |  |  |  | 
Cc1ccc(-n2nccn2)c(C(=O)N2CCOC[C@H]2Cc2cccc(-c3ncccn3)c2)c1F [Example 49, (2-Fluoro-3-methyl-6-[1,2,3]triazol-2-yl-phenyl)-[(R)-3-(3-pyrimidin-2-yl-benzyl)-morpholin-4-yl]-methanone] | 21000 | 582 |  |  | 
O=C(c1ccccc1-n1nccn1)N1CCOC[C@H]1Cc1ccc(O)c(-c2ncccn2)c1 [Example 55, [(R)-3-(4-Hydroxy-3-pyrimidin-2-yl-benzyl)-morpholin-4-yl]-(2-[1,2,3]triazol-2-yl-phenyl)-methanone] |  | 2010 | 27 |  | 
COc1ccc(C[C@@H]2COCCN2C(=O)c2c(C)cccc2-n2nccn2)cc1-c1ncon1 [Example 63, [(R)-3-(4-Methoxy-3-[1,2,4]oxadiazol-3-yl-benzyl)-morpholin-4-yl]-(2-methyl-6-[1,2,3]triazol-2-yl-phenyl)-methanone] |  | 49 | 9 |  | 
Cc1ccc(C(=O)N2[C@H](Cc3cccc(-n4nccn4)c3)COC[C@H]2C)c(-n2nccn2)c1 [Example 69, [(3R,5R)-3-Methyl-5-(3-[1,2,3]triazol-2-yl-benzyl)-morpholin-4-yl]-(4-methyl-2-[1,2,3]triazol-2-yl-phenyl)-methanone] |  |  |  | 0.9 | 314
Cc1cccc(C(=O)N2[C@H](Cc3cccc(-n4nccn4)c3)COC[C@H]2C)c1-n1nccn1 [Example 70, [(3R,5R)-3-Methyl-5-(3-[1,2,3]triazol-2-yl-benzyl)-morpholin-4-yl]-(3-methyl-2-[1,2,3]triazol-2-yl-phenyl)-methanone] |  | 2610 | 5 |  | 
Cc1cccc(C(=O)N2[C@H](Cc3cccc(-n4nccn4)c3)COC[C@@H]2C)c1-n1nccn1 [Example 72, [(3S,5R)-3-Methyl-5-(3-[1,2,3]triazol-2-yl-benzyl)-morpholin-4-yl]-(3-methyl-2-[1,2,3]triazol-2-yl-phenyl)-methanone] |  | 2460 | 8 |  | 
Cc1cc(C(=O)N2[C@H](Cc3cccc(-n4nccn4)c3)COC[C@@H]2C)c(-n2nccn2)cc1C [Example 74, (4,5-Dimethyl-2-[1,2,3]triazol-2-yl-phenyl)-[(3S,5R)-3-methyl-5-(3-[1,2,3]triazol-2-yl-benzyl)-morpholin-4-yl]-methanone] |  | 355 | 11 |  | 
Cc1cc(C(=O)N2CCOC[C@H]2Cc2ccc(C)c(-c3ncon3)c2)c(-n2nccn2)cc1C [Example 79, (4,5-Dimethyl-2-[1,2,3]triazol-2-yl-phenyl)-[(R)-3-(4-methyl-3-[1,2,4]oxadiazol-3-yl-benzyl)-morpholin-4-yl]-methanone] |  | 13 | 0.4 |  | 
O=C(c1cc(F)c(F)cc1-n1nccn1)N1CCOC[C@H]1Cc1cccc(-c2ncon2)c1 [Example 80, (4,5-Difluoro-2-[1,2,3]triazol-2-yl-phenyl)-[(R)-3-(3-[1,2,4]oxadiazol-3-yl-benzyl)-morpholin-4-yl]-methanone] |  | 645 | 28 |  | 
O=C(c1cccc(F)c1-n1nccn1)N1CCOC[C@H]1Cc1cccc(-c2ncon2)c1 [Example 82, (3-Fluoro-2-[1,2,3]triazol-2-yl-phenyl)-[(R)-3-(3-[1,2,4]oxadiazol-3-yl-benzyl)-morpholin-4-yl]-methanone] |  | 1140 | 41 |  | 
O=C(c1ccc(Cl)cc1-n1nccn1)N1CCOC[C@H]1Cc1cccc(-c2ncon2)c1 [Example 86, (4-Chloro-2-[1,2,3]triazol-2-yl-phenyl)-[(R)-3-(3-[1,2,4]oxadiazol-3-yl-benzyl)-morpholin-4-yl]-methanone] |  | 2650 | 42 |  | 
O=C(c1cc(F)ccc1-n1nccn1)N1CCOC[C@H]1Cc1cccc(-c2ncon2)c1 [Example 88, (5-Fluoro-2-[1,2,3]triazol-2-yl-phenyl)-[(R)-3-(3-[1,2,4]oxadiazol-3-yl-benzyl)-morpholin-4-yl]-methanone] |  | 893 | 30 |  | 
Cc1cc(C)c(-n2nccn2)c(C(=O)N2CCOC[C@H]2Cc2cccc(-c3ncon3)c2)c1 [Example 89, (3,5-Dimethyl-2-[1,2,3]triazol-2-yl-phenyl)-[(R)-3-(3-[1,2,4]oxadiazol-3-yl-benzyl)-morpholin-4-yl]-methanone] |  | 420 | 7 |  | 
Cc1cc(-n2nccn2)c(C(=O)N2CCOC[C@H]2Cc2cccc(-n3nccn3)c2)cc1Cl [Example 103, (5-Chloro-4-methyl-2-[1,2,3]triazol-2-yl-phenyl)-[(R)-3-(3-[1,2,3]triazol-2-yl-benzyl)-morpholin-4-yl]-methanone] |  | 47 | 0.7 |  | 
COc1cc(C(=O)N2CCOC[C@H]2Cc2cccc(-n3nccn3)c2)c(-n2nccn2)cc1Cl [Example 104, (4-Chloro-5-methoxy-2-[1,2,3]triazol-2-yl-phenyl)-[(R)-3-(3-[1,2,3]triazol-2-yl-benzyl)-morpholin-4-yl]-methanone] | 13000 | 117 |  |  | 
Cc1cc(C(=O)N2CCOC[C@H]2Cc2cc(-n3nccn3)ccc2F)c(-n2nccn2)cc1C [Example 128, (4,5-Dimethyl-2-[1,2,3]triazol-2-yl-phenyl)-[(R)-3-(2-fluoro-5-[1,2,3]triazol-2-yl-benzyl)-morpholin-4-yl]-methanone] |  | 30 | 0.7 |  | 
O=C(c1c(F)cccc1-n1nccn1)N1CCOC[C@H]1Cc1cc(-n2nccn2)ccc1F [Example 136, [(R)-3-(2-Fluoro-5-[1,2,3]triazol-2-yl-benzyl)-morpholin-4-yl]-(2-fluoro-6-[1,2,3]triazol-2-yl-phenyl)-methanone] |  | 574 | 37 |  | 
O=C(c1cc(F)c(F)cc1-n1nccn1)N1CCOC[C@H]1Cc1cc(-n2nccn2)ccc1F [Example 137, (4,5-Difluoro-2-[1,2,3]triazol-2-yl-phenyl)-[(R)-3-(2-fluoro-5-[1,2,3]triazol-2-yl-benzyl)-morpholin-4-yl]-methanone] |  | 202 | 30 |  | 
Cc1ccc(-n2nccn2)c(C(=O)N2C[C@@H](C)OC[C@H]2Cc2cc(-n3ccnn3)ccc2F)c1 [Example 140, [(2R,5R)-5-(2-Fluoro-5-[1,2,3]triazol-1-yl-benzyl)-2-methyl-morpholin-4-yl]-(5-methyl-2-[1,2,3]triazol-2-yl-phenyl)-methanone] |  | 1110 | 27 |  | 
C[C@@H]1CN(C(=O)c2ccccc2-n2nccn2)[C@H](Cc2cc(-c3ncccn3)ccc2F)CO1 [Example 148, [(2R,5R)-5-(2-Fluoro-5-pyrimidin-2-yl-benzyl)-2-methyl-morpholin-4-yl]-(2-[1,2,3]triazol-2-yl-phenyl)-methanone] |  | 1940 | 39 |  | 
Cc1ccc(C(=O)N2C[C@@H](C)OC[C@H]2Cc2cc(-c3ncccn3)ccc2F)c(-n2nccn2)c1C [Example 151, (3,4-Dimethyl-2-[1,2,3]triazol-2-yl-phenyl)-[(2R,5R)-5-(2-fluoro-5-pyrimidin-2-yl-benzyl)-2-methyl-morpholin-4-yl]-methanone] |  | 818 | 8 |  | 
Cc1cccc(C(=O)N2CCOC[C@H]2Cc2cc(-c3ncccn3)ccc2F)c1-n1nccn1 [Example 157, [(R)-3-(2-Fluoro-5-pyrimidin-2-yl-benzyl)-morpholin-4-yl]-(3-methyl-2-[1,2,3]triazol-2-yl-phenyl)-methanone] |  | 2590 | 39 |  | 
Cc1cccc(C(=O)N2CCOC[C@H]2Cc2cc(-c3ncon3)ccc2F)c1-n1nccn1 [Example 177, [(R)-3-(2-Fluoro-5-[1,2,4]oxadiazol-3-yl-benzyl)-morpholin-4-yl]-(3-methyl-2-[1,2,3]triazol-2-yl-phenyl)-methanone] |  | 893 | 25 |  | 
O=C(c1ccccc1-n1nccn1)N1CCOC[C@H]1Cc1ccc(Cl)c(-c2ncccn2)c1 [Example 194, [(R)-3-(4-Chloro-3-pyrimidin-2-yl-benzyl)-morpholin-4-yl]-(2-[1,2,3]triazol-2-yl-phenyl)-methanone] |  | 2260 | 33 |  | 
